{"source": "patent US9040528B2", "about": "“Chemical compounds 542” (AstraZeneca AB, priority 2008, dated 2015)", "target": "Escherichia coli DNA gyrase A/B tetramer (Escherichia coli (strain K12), UniProt P0AES4+P0AES6)", "assay": "DNA gyrase supercoiling activity fluorescence polarisation assay", "type": "biochemical", "summary_of_the_method": "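Supercoiling reactions quenched with 40 nM 5′-BODIPY-FL triplex-forming oligonucleotide probe in pH 3.5 NaCl/sodium acetate buffer; after 60 min, fluorescence anisotropy read (ex 485/em 535 nm). IC50 by nonlinear regression, normalised to 0.8% DMSO (100% activity) and 5 μM ciprofloxacin (0% activity).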", "key": {"[1]": {"details": "5 nM enzyme, relaxed plasmid, 0.3 mM ATP, ambient temperature, read-out: E. coli DNA gyrase supercoiling IC50"}}, "note": "Like-named read-outs stand apart in the source and are kept apart here.", "data": [{"smiles": "C[C@@H]1CN2c3c(nc4c(C(=O)NCc5ccc(C#N)cc5)noc4c3Cl)CC3(C(=O)NC(=O)NC3=O)[C@H]2[C@H](C)O1", "note": "(relative stereo) [Example 132, (2R,4S,4aS)-rel-11-chloro-N-(4-cyanobenzyl)-2,4-dimethyl-2′,4′,6′-trioxo-2,2′,3′,4,4a,4′,6,6′-octahydro-1H,1′H-spiro[isoxazolo[4,5-g][1,4]oxazino[4,3-a][1,5]naphthyridine-5,5′-pyrimidine]-8-carboxamide]", "values": [{"measurement": "IC50", "setting": "[1]", "result": 7700, "unit": "nM"}]}, {"smiles": "C[C@@H]1CN2c3c(cc4c(-c5nccs5)noc4c3Cl)CC3(C(=O)NC(=O)NC3=O)[C@H]2[C@H](C)O1", "note": "(relative stereo) [Example 48, (2R,4S,4aS)-rel-11-chloro-2,4-dimethyl-8-(1,3-thiazol-2-yl)-1,2,4,4a-tetrahydro-2′H,6H-spiro[1,4-oxazino[4,3-a][1,2]oxazolo[4,5-g]quinoline-5,5′-pyrimidine]-2′,4′,6′(1′H,3′H)-trione]", "values": [{"measurement": "IC50", "setting": "[1]", "result": 1000, "unit": "nM"}]}, {"smiles": "C[C@@H]1CN2c3c(cc4c(C(=O)N5CCCCO5)noc4c3F)CC3(C(=O)NC(=O)NC3=O)[C@H]2[C@H](C)O1", "note": "(relative stereo) [Example 153, (2R,4S,4aS)-rel-11-fluoro-2,4-dimethyl-8-(1,2-oxazinan-2-ylcarbonyl)-1,2,4,4a-tetrahydro-2′H,6H-spiro[isoxazolo[4,5-g][1,4]oxazino[4,3-a]quinoline-5,5′-pyrimidine]-2′,4′,6′(1′H,3′H)-trione]", "values": [{"measurement": "IC50", "setting": "[1]", "result": 3700, "unit": "nM"}]}, {"smiles": "Cc1noc2c(F)c3c(cc12)CC1(C(=O)NC(=O)NC1=O)[C@H]1[C@H](C)C[C@H](C)CN31", "note": "(relative stereo) [Example 77, (2S,4R,4aR)-rel-11-fluoro-2,4,8-trimethyl-1,2,3,4,4a,6-hexahydro-1′H-spiro[isoxazolo[4,5-g]pyrido[1,2-a]quinoline-5,5′-pyrimidine]-2′,4′,6′(3′H)-trione]", "values": [{"measurement": "IC50", "result": 300, "unit": "nM"}]}, {"smiles": "Cc1noc(C)c1-c1noc2c(F)c3c(cc12)CC1(C(=O)NC(=O)NC1=O)[C@H]1[C@H](C)O[C@H](C)CN31", "note": "(relative stereo) [Example 67, (2R,4S,4aS)-rel-8-(3,5-dimethyl-1,2-oxazol-4-yl)-11-fluoro-2,4-dimethyl-1,2,4,4a-tetrahydro-2′H,6H-spiro[1,4-oxazino[4,3-a][1,2]oxazolo[4,5-g]quinoline-5,5′-pyrimidine]-2′,4′,6′(1′H,3′H)-trione]", "values": [{"measurement": "IC50", "setting": "[1]", "result": 3200, "unit": "nM"}]}, {"smiles": "C[C@@H]1CN2c3c(cc4c(C(=O)N5CCOCC5)noc4c3F)CC3(C(=O)NC(=O)NC3=O)[C@H]2[C@H](C)O1", "note": "(relative stereo) [Example 135, (2R,4S,4aS)-rel-11-fluoro-2,4-dimethyl-8-(morpholine-4-carbonyl)-2,4,4a,6-tetrahydro-1H,1′H-spiro[isoxazolo[4,5-g][1,4]oxazino[4,3-a]quinoline-5,5′-pyrimidine]-2′,4′,6′(3′H)-trione]", "values": [{"measurement": "IC50", "setting": "[1]", "result": 3300, "unit": "nM"}]}, {"smiles": "CSc1cnc(-c2noc3c(F)c4c(cc23)CC2(C(=O)NC(=O)NC2=O)[C@H]2[C@H](C)O[C@H](C)CN42)cn1", "note": "(relative stereo) [Example 80, (2R,4S,4aS)-rel-11-fluoro-2,4-dimethyl-8-(5-(methylthio)pyrazin-2-yl)-2,4,4a,6-tetrahydro-1H,1′H-spiro[isoxazolo[4,5-g][1,4]oxazino[4,3-a]quinoline-5,5′-pyrimidine]-2′,4′,6′(3′H)-trione]", "values": [{"measurement": "IC50", "setting": "[1]", "result": 1700, "unit": "nM"}]}, {"smiles": "C[C@@H]1CN2c3c(nc4c(-c5nccs5)noc4c3Cl)CC3(C(=O)NC(=O)NC3=O)[C@H]2[C@H](C)O1", "note": "[Example 111(b), (2R,4S,4aS)-11-chloro-2,4-dimethyl-8-(thiazol-2-yl)-2,4,4a,6-tetrahydro-1H,1′H-spiro[isoxazolo[4,5-g][1,4]oxazino[4,3-a][1,5]naphthyridine-5,5′-pyrimidine]-2′,4′,6′(3′H)-trione]", "values": [{"measurement": "IC50", "setting": "[1]", "result": 1100, "unit": "nM"}]}, {"smiles": "CNC(=O)c1noc2c(F)c3c(cc12)CC1(C(=O)NC(=O)NC1=O)[C@H]1[C@H](C)O[C@H](C)CN31", "note": "(relative stereo) [Example 140, (2R,4S,4aS)-rel-11-fluoro-N,2,4-trimethyl-2′,4′,6′-trioxo-2,2′,3′,4,4a,4′,6,6′-octahydro-1H,1′H-spiro[isoxazolo[4,5-g][1,4]oxazino[4,3-a]quinoline-5,5′-pyrimidine]-8-carboxamide]", "values": [{"measurement": "IC50", "setting": "[1]", "result": 1100, "unit": "nM"}]}, {"smiles": "C[C@@H]1CN2c3c(cc4c([S+](C)[O-])noc4c3F)CC3(C(=O)NC(=O)NC3=O)[C@H]2[C@H](C)O1", "note": "(relative stereo) [Example 181, (2R,4S,4aS)-rel-11-fluoro-2,4-dimethyl-8-(methylsulfinyl)-1,2,4,4a-tetrahydro-2′H,6H-spiro[1,4-oxazino[4,3-a][1,2]oxazolo[4,5-g]quinoline-5,5′-pyrimidine]-2′,4′,6′(1′H,3′H)-trione]", "values": [{"measurement": "IC50", "setting": "[1]", "result": 3300, "unit": "nM"}]}, {"smiles": "CC(=O)Nc1ccn(-c2noc3c(F)c4c(cc23)CC2(C(=O)NC(=O)NC2=O)[C@H]2[C@H](C)O[C@H](C)CN42)n1", "note": "(relative stereo) [Example 28, N-{1-[(2R,4S,4aS)-rel-11-fluoro-2,4-dimethyl-2′,4′,6′-trioxo-1,1′,2,3′,4,4′,4a,6′-octahydro-2′H,6H-spiro[1,4-oxazino[4,3-a][1,2]oxazolo[4,5-g]quinoline-5,5′-pyrimidin]-8-yl]-1H-pyrazol-3-yl}acetamide]", "values": [{"measurement": "IC50", "setting": "[1]", "result": 3100, "unit": "nM"}]}, {"smiles": "C[C@@H]1CN2c3c(cc4c(S(C)(=O)=O)noc4c3F)CC3(C(=O)NC(=O)NC3=O)[C@H]2[C@H](C)O1", "note": "(relative stereo) [Example 182, (2R,4S,4aS)-rel-11-fluoro-2,4-dimethyl-8-(methylsulfonyl)-1,2,4,4a-tetrahydro-2′H,6H-spiro[1,4-oxazino[4,3-a][1,2]oxazolo[4,5-g]quinoline-5,5′-pyrimidine]-2′,4′,6′(1′H,3′H)-trione]", "values": [{"measurement": "IC50", "setting": "[1]", "result": 2400, "unit": "nM"}]}, {"smiles": "C[C@@H]1CN2c3c(cc4c(-c5ccncn5)noc4c3F)CC3(C(=O)NC(=O)NC3=O)[C@H]2[C@H](C)O1", "note": "[Example 74(b), (2R,4S,4aS)-11-fluoro-2,4-dimethyl-8-(pyrimidin-4-yl)-2,4,4a,6-tetrahydro-1H,1′H-spiro[isoxazolo[4,5-g][1,4]oxazino[4,3-a]quinoline-5,5′-pyrimidine]-2′,4′,6′(3′H)-trione]", "values": [{"measurement": "IC50", "setting": "[1]", "result": 300, "unit": "nM"}]}, {"smiles": "C[C@@H]1CN2c3c(cc4c(-n5cncn5)noc4c3F)CC3(C(=O)NC(=O)NC3=O)[C@@H]2[C@@H](C)O1", "note": "[Example 53(b), (2R,4R,4aR)-11-fluoro-2,4-dimethyl-8-(1H-1,2,4-triazol-1-yl)-2,4,4a,6-tetrahydro-1H,1′H-spiro[isoxazolo[4,5-g][1,4]oxazino[4,3-a]quinoline-5,5′-pyrimidine]-2′,4′,6′(3′H)-trione]", "values": [{"measurement": "IC50", "setting": "[1]", "result": 20000, "unit": "nM"}]}, {"smiles": "Cc1nsc2c(F)c3c(cc12)CC1(C(=O)NC(=O)NC1=O)[C@H]1[C@H](C)O[C@H](C)CN31", "note": "(relative stereo) [Example 75, (2R,4S,4aS)-rel-11-fluoro-2,4,8-trimethyl-1,2,4,4a-tetrahydro-2′H,6H-spiro[1,4-oxazino[4,3-a][1,2]thiazolo[4,5-g]quinoline-5,5′-pyrimidine]-2′,4′,6′(1′H,3′H)-trione]", "values": [{"measurement": "IC50", "setting": "[1]", "result": 200, "unit": "nM"}]}, {"smiles": "CNC(=O)c1cnn(-c2noc3c(F)c4c(cc23)CC2(C(=O)NC(=O)NC2=O)[C@H]2[C@H](C)O[C@H](C)CN42)c1", "note": "(relative stereo) [Example 188, 1-[(2R,4S,4aS)-rel-11-fluoro-2,4-dimethyl-2′,4′,6′-trioxo-1,1′,2,3′,4,4′,4a,6′-octahydro-2′H,6H-spiro[1,4-oxazino[4,3-a][1,2]oxazolo[4,5-g]quinoline-5,5′-pyrimidin]-8-yl]-N-methyl-1H-pyrazole-4-carboxamide]", "values": [{"measurement": "IC50", "setting": "[1]", "result": 2700, "unit": "nM"}]}, {"smiles": "C[C@@H]1CN2c3c(nc4c(C(=O)N5CC(F)(F)C5)noc4c3Cl)CC3(C(=O)NC(=O)NC3=O)[C@H]2[C@H](C)O1", "note": "(relative stereo) [Example 130, (2R,4S,4aS)-rel-11-Chloro-8-(3,3-difluoroazetidine-1-carbonyl)-2,4-dimethyl-2,4,4a,6-tetrahydro-1H,1′H-spiro[isoxazolo[4,5-g][1,4]oxazino[4,3-a][1,5]naphthyridine-5,5′-pyrimidine]-2′,4′,6′(3′H)-trione]", "values": [{"measurement": "IC50", "setting": "[1]", "result": 30000, "unit": "nM"}]}, {"smiles": "C[C@@H]1CN2c3c(cc4c(C(=O)NCC(F)F)noc4c3F)CC3(C(=O)NC(=O)NC3=O)[C@H]2[C@H](C)O1", "note": "[Example 94(b), (2R,4S,4aS)—N-(2,2-difluoroethyl)-11-fluoro-2,4-dimethyl-2′,4′,6′-trioxo-2,2′,3′,4,4a,4′,6,6′-octahydro-1H,1′H-spiro[isoxazolo[4,5-g][1,4]oxazino[4,3-a]quinoline-5,5′-pyrimidine]-8-carboxamide]", "values": [{"measurement": "IC50", "setting": "[1]", "result": 800, "unit": "nM"}]}, {"smiles": "Cc1c2c(cc3c(-c4cnccn4)noc13)CC1(C(=O)NC(=O)NC1=O)[C@H]1[C@H](C)O[C@H](C)CN21", "note": "(relative stereo) [Example 101, (2R,4S,4aS)-rel-2,4,11-trimethyl-8-(pyrazin-2-yl)-1,2,4,4a-tetrahydro-2′H,6H-spiro[1,4-oxazino[4,3-a][1,2]oxazolo[4,5-g]quinoline-5,5′-pyrimidine]-2′,4′,6′(1′H,3′H)-trione]", "values": [{"measurement": "IC50", "setting": "[1]", "result": 1400, "unit": "nM"}]}, {"smiles": "C[C@@H]1CN2c3c(cc4c(C(=O)NCC5CC5)noc4c3F)CC3(C(=O)NC(=O)NC3=O)[C@H]2[C@H](C)O1", "note": "(relative stereo) [Example 152, (2R,4S,4aS)-rel-N-(cyclopropylmethyl)-11-fluoro-2,4-dimethyl-2′,4′,6′-trioxo-2,2′,3′,4,4a,4′,6,6′-octahydro-1H,1′H-spiro[isoxazolo[4,5-g][1,4]oxazino[4,3-a]quinoline-5,5′-pyrimidine]-8-carboxamide]", "values": [{"measurement": "IC50", "setting": "[1]", "result": 2100, "unit": "nM"}]}, {"smiles": "Cc1cnc(-c2noc3c(Cl)c4c(nc23)CC2(C(=O)NC(=O)NC2=O)[C@H]2[C@H](C)O[C@H](C)CN42)s1", "note": "(relative stereo) [Example 122, (2R,4S,4aS)-rel-11-Chloro-2,4-dimethyl-8-(5-methylthiazol-2-yl)-2,4,4a,6-tetrahydro-1H,1′H-spiro[isoxazolo[4,5-g][1,4]oxazino[4,3-a][1,5]naphthyridine-5,5′-pyrimidine]-2′,4′,6′(3′H)-trione]", "values": [{"measurement": "IC50", "setting": "[1]", "result": 500, "unit": "nM"}]}]}
